The values that follow come from paper PMC6407917, “Identification of GSK3186899/DDD853651 as a Preclinical Development Candidate for the Treatment of Visceral Leishmaniasis” (Journal of Medicinal Chemistry, 2018).

One experiment has as its target Cdk4 (Homo sapiens, UniProt P11802). Conditions: mixed human cell/tissue extract; maximum concentration 20 μM.
In a further experiment the target is MAP3K6 (Homo sapiens, UniProt O95382). Put plainly: biochemical. The arrangement: species or system HEK293/K-562/placenta mixed human extract; Kinobeads chemoproteomic competition binding, quantified by TMT LC-MS/MS, dose response up to 20 uM.
The target in a further experiment is MARK1 (Homo sapiens, UniProt Q9P0L2). Put plainly: biochemical. The arrangement: species or system HEK293/K-562/placenta mixed human extract; Kinobeads chemoproteomic competition binding, quantified by TMT LC-MS/MS, dose response up to 20 uM.
A further experiment addresses MAPKAPK3 (Homo sapiens, UniProt Q16644). Put plainly: biochemical. Further details: species or system HEK293/K-562/placenta mixed human extract; Kinobeads chemoproteomic competition binding, quantified by TMT LC-MS/MS, dose response up to 20 uM.
A further experiment concerns the target NEK3 (Homo sapiens, UniProt P51956). Put plainly: biochemical. Further details: species or system HEK293/K-562/placenta mixed human extract; Kinobeads chemoproteomic competition binding, quantified by TMT LC-MS/MS, dose response up to 20 uM.
The next experiment addresses STK38 (Homo sapiens, UniProt Q15208). Put plainly: biochemical. The arrangement: species or system HEK293/K-562/placenta mixed human extract; Kinobeads chemoproteomic competition binding, quantified by TMT LC-MS/MS, dose response up to 20 uM.

Chain of STK38 (Q15208 whole entry): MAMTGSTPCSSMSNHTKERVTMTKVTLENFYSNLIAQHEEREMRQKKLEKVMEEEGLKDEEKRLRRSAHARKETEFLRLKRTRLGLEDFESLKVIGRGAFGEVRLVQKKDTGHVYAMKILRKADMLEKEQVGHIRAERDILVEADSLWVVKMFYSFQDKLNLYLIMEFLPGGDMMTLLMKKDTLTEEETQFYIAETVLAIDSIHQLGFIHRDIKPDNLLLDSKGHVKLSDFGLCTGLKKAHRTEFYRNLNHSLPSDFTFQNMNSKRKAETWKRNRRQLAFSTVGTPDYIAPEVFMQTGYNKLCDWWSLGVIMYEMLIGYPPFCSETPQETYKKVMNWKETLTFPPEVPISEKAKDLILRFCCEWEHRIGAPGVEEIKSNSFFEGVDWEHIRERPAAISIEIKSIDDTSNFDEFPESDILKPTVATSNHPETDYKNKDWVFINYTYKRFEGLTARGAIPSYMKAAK
Chain of MAP3K6 (O95382 whole entry): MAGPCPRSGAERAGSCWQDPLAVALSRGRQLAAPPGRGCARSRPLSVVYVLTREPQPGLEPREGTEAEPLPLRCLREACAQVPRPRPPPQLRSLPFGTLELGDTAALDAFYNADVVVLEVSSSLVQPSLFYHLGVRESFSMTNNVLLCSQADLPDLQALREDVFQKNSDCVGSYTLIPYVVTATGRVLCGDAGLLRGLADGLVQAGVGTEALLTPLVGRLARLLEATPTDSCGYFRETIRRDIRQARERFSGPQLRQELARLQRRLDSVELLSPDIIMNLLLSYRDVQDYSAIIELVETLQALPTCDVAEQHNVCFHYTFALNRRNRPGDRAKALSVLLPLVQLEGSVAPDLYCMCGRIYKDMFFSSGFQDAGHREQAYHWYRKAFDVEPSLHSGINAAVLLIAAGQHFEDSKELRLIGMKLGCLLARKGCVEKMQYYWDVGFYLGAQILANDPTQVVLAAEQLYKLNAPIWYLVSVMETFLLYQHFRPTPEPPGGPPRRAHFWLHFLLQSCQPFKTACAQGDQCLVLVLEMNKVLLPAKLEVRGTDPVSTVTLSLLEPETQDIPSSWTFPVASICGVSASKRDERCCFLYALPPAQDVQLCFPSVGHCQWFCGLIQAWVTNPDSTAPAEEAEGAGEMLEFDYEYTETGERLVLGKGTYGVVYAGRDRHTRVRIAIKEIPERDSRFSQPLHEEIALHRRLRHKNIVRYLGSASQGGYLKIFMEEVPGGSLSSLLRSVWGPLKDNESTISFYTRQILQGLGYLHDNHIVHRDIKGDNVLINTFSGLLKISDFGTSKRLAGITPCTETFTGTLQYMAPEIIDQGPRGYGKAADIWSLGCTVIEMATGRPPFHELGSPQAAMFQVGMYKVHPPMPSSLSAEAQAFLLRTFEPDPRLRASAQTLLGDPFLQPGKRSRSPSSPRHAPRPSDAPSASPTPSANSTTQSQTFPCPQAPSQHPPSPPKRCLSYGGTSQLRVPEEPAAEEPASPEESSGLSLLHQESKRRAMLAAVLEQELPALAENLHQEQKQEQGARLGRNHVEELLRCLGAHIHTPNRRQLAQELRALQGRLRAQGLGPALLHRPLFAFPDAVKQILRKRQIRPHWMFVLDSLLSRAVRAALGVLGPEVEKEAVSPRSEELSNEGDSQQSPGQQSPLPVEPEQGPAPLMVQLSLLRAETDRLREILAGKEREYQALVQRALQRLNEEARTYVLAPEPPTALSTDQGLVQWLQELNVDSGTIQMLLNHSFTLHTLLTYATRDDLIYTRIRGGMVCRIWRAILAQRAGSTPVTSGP
Chain of MAPKAPK3 (Q16644 whole entry): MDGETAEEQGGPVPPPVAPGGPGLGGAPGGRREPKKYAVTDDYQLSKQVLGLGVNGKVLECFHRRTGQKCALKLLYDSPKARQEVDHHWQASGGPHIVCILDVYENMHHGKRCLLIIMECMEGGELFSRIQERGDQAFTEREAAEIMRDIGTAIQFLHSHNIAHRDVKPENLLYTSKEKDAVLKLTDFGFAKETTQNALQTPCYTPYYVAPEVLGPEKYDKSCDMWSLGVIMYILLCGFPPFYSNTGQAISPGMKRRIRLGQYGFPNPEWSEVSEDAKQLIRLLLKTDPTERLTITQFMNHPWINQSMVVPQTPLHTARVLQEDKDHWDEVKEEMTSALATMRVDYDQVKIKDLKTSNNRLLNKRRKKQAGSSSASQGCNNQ
Chain of NEK3 (P51956 whole entry): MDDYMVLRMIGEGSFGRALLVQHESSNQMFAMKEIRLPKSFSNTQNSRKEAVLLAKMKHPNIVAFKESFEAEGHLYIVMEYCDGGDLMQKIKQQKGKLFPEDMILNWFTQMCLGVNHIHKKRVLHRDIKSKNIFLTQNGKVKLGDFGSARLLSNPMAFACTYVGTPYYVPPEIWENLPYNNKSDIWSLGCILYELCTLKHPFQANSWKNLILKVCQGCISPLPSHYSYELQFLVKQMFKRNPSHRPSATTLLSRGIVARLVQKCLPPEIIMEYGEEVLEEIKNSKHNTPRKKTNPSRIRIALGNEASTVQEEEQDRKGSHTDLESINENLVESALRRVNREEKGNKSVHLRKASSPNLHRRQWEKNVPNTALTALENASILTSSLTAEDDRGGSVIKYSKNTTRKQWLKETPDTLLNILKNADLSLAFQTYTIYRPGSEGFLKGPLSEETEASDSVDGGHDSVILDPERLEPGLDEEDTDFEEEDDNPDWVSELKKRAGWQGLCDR
Chain of Cdk4 (P11802 2-303): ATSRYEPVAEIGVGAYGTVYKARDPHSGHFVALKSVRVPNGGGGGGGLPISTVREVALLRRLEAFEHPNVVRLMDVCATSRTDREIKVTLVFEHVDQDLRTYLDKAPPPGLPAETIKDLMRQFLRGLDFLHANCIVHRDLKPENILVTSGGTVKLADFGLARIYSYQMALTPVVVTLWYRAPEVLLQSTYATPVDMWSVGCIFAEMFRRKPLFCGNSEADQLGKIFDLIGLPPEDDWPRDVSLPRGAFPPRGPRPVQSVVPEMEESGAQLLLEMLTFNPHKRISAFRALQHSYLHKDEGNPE
Chain of MARK1 (Q9P0L2 whole entry): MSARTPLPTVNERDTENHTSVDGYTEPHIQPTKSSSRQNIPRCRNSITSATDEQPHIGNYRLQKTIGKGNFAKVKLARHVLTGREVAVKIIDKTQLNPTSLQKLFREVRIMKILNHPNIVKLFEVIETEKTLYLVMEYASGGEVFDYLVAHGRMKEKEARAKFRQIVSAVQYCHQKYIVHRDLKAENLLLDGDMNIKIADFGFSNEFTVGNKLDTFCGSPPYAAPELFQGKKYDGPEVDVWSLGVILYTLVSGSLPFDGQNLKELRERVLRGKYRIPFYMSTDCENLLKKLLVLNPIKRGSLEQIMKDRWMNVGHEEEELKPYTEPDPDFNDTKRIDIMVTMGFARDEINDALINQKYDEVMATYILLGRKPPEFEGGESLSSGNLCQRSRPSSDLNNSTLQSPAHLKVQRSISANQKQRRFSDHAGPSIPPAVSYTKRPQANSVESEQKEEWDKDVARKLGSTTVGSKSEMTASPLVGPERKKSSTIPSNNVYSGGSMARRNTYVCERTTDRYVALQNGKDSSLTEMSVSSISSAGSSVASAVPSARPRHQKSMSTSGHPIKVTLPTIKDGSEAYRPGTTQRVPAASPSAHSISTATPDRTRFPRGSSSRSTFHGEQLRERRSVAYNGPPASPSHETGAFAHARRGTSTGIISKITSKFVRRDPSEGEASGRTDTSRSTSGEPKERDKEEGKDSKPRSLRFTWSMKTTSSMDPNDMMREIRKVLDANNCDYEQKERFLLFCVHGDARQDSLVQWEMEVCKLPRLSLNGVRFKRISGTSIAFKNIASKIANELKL

What is called IC50 is the concentration at which inhibition is half-maximal. A lower IC50 goes with greater potency in that assay. For `COc1nc(N[C@H]2CC[C@H](NS(=O)(=O)CC(C)C)CC2)nc2[nH]nc(N3CCOC[C@H]3C)c12` [compound 39, N-(trans-4-((4-Methoxy-3-((R)-3-methylmorpholino)-1H-pyrazolo[3,4-d]pyrimidin-6-yl)amino)cyclohexyl)-2-methylpropane-1-sulfonamide], the IC50 against Cdk4 is above 20 µM; on MAP3K6, at least 20 µM; on MARK1 it was at least 20 µM; on MAPKAPK3 it was at least 20 µM; at NEK3, at least 20 µM; at STK38, at least 20 µM.
